Earlier results as cited in patent publication US20060004050A1, “Compositions and methods for the prevention or treatment of pain and other nervous system disorders” (priority 2004, published 2006).

Columns and labels:
[1] = tested on: spinal nerve root action potentials; conditions: cats
[2] = tested on: calcium current of snail neurons
[3] = in vivo
[4] = tested on: spinal cord and descending neural pathways; conditions: rats
[5] = in vivo; remark: listed apart in the source
[6] = rat
beta-adrenergic = conditions: L-form versus D-enantiomer

Question: For `Cc1ccc(C(=O)C(C)CN2CCCCC2)cc1` (racemic) [Tolperisone, 2,4′-dimethyl-3-piperidino-propiophenone], which “effect on ventral nerve root reflexes and dorsal nerve root reflex” value [1] is on record?
Answer: dose-dependently inhibit both ventral nerve root reflexes and the dorsal nerve root reflex

Question: And the “effect on calcium current” value [2]?
Answer: inhibit calcium current dose-dependently

Question: What about the “most serious adverse effect” value [3] of the same compound?
Answer: anaphylaxis

Question: And the “other frequently reported adverse effects” value [3]?
Answer: muscle weakness, muscle pain, headache, dizziness, and gastric complaints

Question: And the “effect on segmental (limb) reflexes” value [4]?
Answer: depress segmental (limb) reflexes

Question: What about the membrane effect (tissue membrane) of the same compound?
Answer: tissue membrane stabilizing properties

Question: For `O=C1CCC(N2C(=O)c3ccccc3C2=O)C(=O)N1` (single isomer, unassigned) [D-enantiomer of thalidomide, thalidomide], which “effect when prescribed for morning sickness during pregnancy” value [5] is on record?
Answer: safe and effective sedative

Question: Which “effect when prescribed for morning sickness during pregnancy” value [5] does the source give for `O=C1CCC(N2C(=O)c3ccccc3C2=O)C(=O)N1` (single isomer, unassigned) [L-enantiomer of thalidomide, thalidomide] here?
Answer: potent teratogen

Question: For `Cc1ccc(C(=O)C(C)CN2CCCCC2)cc1` (single isomer, unassigned; (+)) [(+)-tolperisone], which “pharmacodynamic property of the isomer” value [6] is on record?
Answer: more muscle-relaxant properties

Question: Which “pharmacodynamic property of the isomer” value [6] does the source give for `Cc1ccc(C(=O)C(C)CN2CCCCC2)cc1` (single isomer, unassigned; (-)) [(−)-tolperisone] here?
Answer: vasodilatory activity

Question: For `CC(C)NCC(O)COc1cccc2ccccc12` (centres unmarked) [propranolol], which “potency relative to the D-enantiomer” value (beta-adrenergic) is on record?
Answer: 100 times
